Earlier results on 3 compounds are cited in article PMC5525545 (Nature, 2017).

One series has as its system AT2R. As to conditions: activation of AT2R.
For series [1] the following is noted: patients with post-herpetic neuralgia.
Series [2] has as its system AngII-induced neuronal excitability.
For series [3] the following is noted: several neuropathic pain models in rodents.

On to `CCCCOC(=O)NS(=O)(=O)c1sc(CC(C)C)cc1-c1ccc(Cn2ccnc2)cc1` [Compound 21], for which the “beneficial in vivo effects” value in the series with AT2R is “inducing pressure natriuresis, lowering blood pressure, conferring acute vaso-relaxation, and exhibiting organ protective effects”.

For the compound `COc1ccc2c(c1OCc1ccccc1)C[C@@H](C(=O)O)N(C(=O)C(c1ccccc1)c1ccccc1)C2` [EMA401], the “efficacy in phase II clinical trials” value in series [1] is on record as “demonstrated efficacy”.

`Cc1cc(Cn2cnc3c2C[C@@H](C(=O)O)N(C(=O)C(c2ccccc2)c2ccccc2)C3)ccc1N(C)C` [PD123319]: the “effect on AngII-induced neuronal excitability” value in series [2] is on record as “blocks AngII-induced neuronal excitability”. The oral bioavailability result in series [3] is on record as “exhibits oral bioavailability”.
